Laboratory results taken from paper PMC12040169 (PLOS Biology, 2025).

assay: in vitro; conditions: human, hela cells, % viability

SMILES | viability at 28.5 h, 10 µM [%]
CC(CNC(=O)Cc1ccc(C(F)(F)F)cc1[N+](=O)[O-])N1CCc2ccccc2C1 (stereo not drawn) [CBK298292] | 88.8
CCc1c(C)nc(SC(C(=O)O)c2ccccc2)c(C#N)c1C (stereo not drawn) [CBK270174] | 94.9
Cc1c(CN2CCCC2(C)C(=O)NC2CCCC2)cnn1C (stereo not drawn) [CBK281960] | 108
Cc1c(C(C)NCC2CCCC2O)cnn1-c1ccc(C#N)cc1 (stereo not drawn) [CBK304019] | 94.5
CC1(C)NC(=O)N(CC(O)CNC23CC4CC(CC(C4)C2)C3)C1=O (stereo not drawn) [CBK264823] | 95.5
COc1ccccc1-c1noc(CCCC(=O)Nc2cccnc2)n1 [CBK268848] | 101
CC(=O)Nc1cc(C)c(C)cc1NC(C)=O [CBK025366] | 97.5
Cc1nn(C)c(N2CCNCC2)c1NC(=O)COc1ccccc1 [CBK050249T] | 103
COC(=O)c1cscc1NC(=O)c1cnc(-c2cccc(C)c2)c(-c2ccc(C(C)=O)s2)c1 [CBK036760] | 85.4
CCN(C)C(=O)N1CCN(CCCC(c2ccc(F)cc2)c2ccc(F)cc2)CC1 [CBK024910C] | 90.6
CN(C)c1nc(-c2cc(C(F)(F)F)cc(C(F)(F)F)c2)ccc1C(=O)NCc1ccco1 [CBK106094] | 89.5
CCn1cncc1CN(Cc1ccc(F)cc1)CC1CCCO1 (stereo not drawn) [CBK283036] | 98
CCn1cc(Cl)c(C(=O)NC2CCN(c3cnccn3)CC2)n1 [CBK306922] | 95.5
N#Cc1cccc(-c2cnc(N)c(-c3ccc(O)cc3)n2)c1 [CBK115630] | 98
CC1(C(=O)N2CCc3onc(-c4ccccc4F)c3C2)CCCO1 (stereo not drawn) [CBK282660] | 88.1
Cc1cccc(Nc2ccc(C3CCCCN3Cc3ccc4nccnc4c3)cn2)n1 (stereo not drawn) [CBK285536] | 76.2
CS(=O)(=O)N1CC2(CCN(CCCOc3ccccc3)CC2)c2ccccc21 [CBK115457T] | 106
CCC1CCCCN1C(=O)c1cc(C)nc(Cl)c1 (stereo not drawn) [CBK076748] | 102
Cc1cc(C)n(CCCC(=O)N2CCC3(CC2)CC(=O)N(C)C3)n1 [CBK306905] | 90.5
OC(Cn1nnc2ccccc21)Cn1c(-c2ccccc2)c(-c2ccccc2)c2ccc3ccccc3c21 (stereo not drawn) [CBK264054G] | 92.9
CSc1nc(NN2C(=O)c3ccccc3C2=O)c2c3c(sc2n1)COC(C)(C)C3 [CBK268758] | 85.6

SMILES | viability at 28.5 h, 10 µM [%]
COc1ccccc1C(=O)Cn1c(=O)n(S(=O)(=O)c2ccccc2)c2ccccc21 [CBK106497] | 90.2
O=c1[nH]cnc2ccc(Br)cc12 [CBK026537] | 93.7
CN(C)CCCNC(=O)CCc1ccccc1 [CBK263806] | 93
COC(=O)c1c(COC(=O)c2cnc(Cl)c(Cl)c2)nc2ccccc2c1C [CBK296940] | 102
Cc1nn(CC(=O)N(C)Cc2cnccn2)c(=O)c2ccccc12 [CBK304356] | 97.6
COc1ccc(Oc2cncc(OC3CCN(CC(=O)Nc4c(C)cccc4C)C3)n2)cc1OC (stereo not drawn) [CBK084403] | 101
CN(C)c1cc(=O)c2cc3c(cc2o1)CCC3 [CBK010017] | 67.2
CCCC(=O)c1ccc(S(=O)(=O)N2CCCN(Cc3ccc4cccc(O)c4n3)CC2)cc1 [CBK062901] | 102
Cc1c(C#N)c(=O)ncn1Cc1ccncc1 [CBK021603] | 102
CC1CCc2sc3ncnc(N4CCN(CCOC(c5ccccc5)c5ccccc5)CC4)c3c2C1 (stereo not drawn) [CBK264884] | 86.6
O=C(c1ccoc1)N1CCC2(CCCN(CCCn3c(=O)[nH]c4ccccc43)C2)C1 (stereo not drawn) [CBK132818] | 90.1
Cn1c(=O)c2c(ncn2CCCN)n(C)c1=O [CBK267707C] | 91.8
COc1ccc(CNC(=O)Cn2nc3c(SCc4ccc(Cl)cc4)nccn3c2=O)cc1 [CBK300541] | 90.5
CCC(C)(C)c1ccc(S(=O)(=O)N2CCN(Cc3cccc4cccnc34)CC2)cc1 [CBK062830] | 98.1
O=C(NCc1c(Cl)cccc1Cl)N1CCN(c2ccccc2)CC1 [CBK155194] | 98.5
CCC(=O)N(Cc1cc2cc(C)ccc2nc1O)c1ccc(C)c(C)c1 [CBK265381] | 107
O=S(=O)(Nc1cnc2ccccc2c1)c1cccs1 [CBK043694] | 83
COC(=O)c1ccc(NC(=O)C2Cc3ccccc3CN2S(=O)(=O)c2cccs2)cc1 (stereo not drawn) [CBK265693] | 92.7
O=C(CSc1nnc2scc(-c3ccccc3)n12)Nc1nsc(-c2ccccc2)n1 [CBK265672] | 103
COCC(=O)N1CCc2sccc2C1c1ccc(NCc2ccccc2F)cc1 (stereo not drawn) [CBK286446] | 96.6
COc1ccc(S(=O)(=O)NC[C@H]2C[C@@H]3CC[N@]2C[C@@H]3CN2CCOCC2)cc1 [CBK288761] | 87.7

SMILES | viability at 28.5 h, 10 µM [%]
CC(C#CCN(C)C)N1C(=O)CCC1C (stereo not drawn) [CBK008291G] | 109
CC(=O)Nc1cccc(-n2nnnc2SCc2cnn(C)c2)c1 [CBK305471] | 101
CS(=O)(=O)N(Cc1ccccc1)c1ccc(C(=O)Nc2ccccc2C(=O)O)cc1 [CBK264117] | 108
CC(C)(C(=O)N1CCC(C(=O)NCCc2c[nH]c3ccccc23)C1)c1ccc(F)cc1 (stereo not drawn) [CBK286034] | 102
CCOC(=O)c1cnc2c(Cl)cc(Cl)cc2c1NCCN1CCOCC1 [CBK307278] | 83.5
N#CCCN(Cc1cccnc1)C(=O)Cc1noc2ccccc12 [CBK304001] | 113
O=C(CN1CCN(c2ccc([N+](=O)[O-])cn2)CC1)Nc1ccc2c(c1)OCO2 [CBK074679] | 115
O=[N+]([O-])c1ccc2c(c1)nnn2CN1CCCCC1 [CBK261663] | 90.4
CCn1c(=O)oc2cc(NC(=O)NCCN3CCCCC3CO)ccc21 (stereo not drawn) [CBK306565] | 107
FC(F)(F)c1ccc(N2CCNCC2)nc1SCc1ccccc1Cl [CBK003964A] | 98.2
COc1cccc(-n2ccn(C(=O)CCC3CCCC3)c2=O)c1 [CBK106625] | 91.1
Nc1ncc(-c2ccc(C(=O)N3CCOCC3)cc2)nc1-c1ccc(Cl)s1 [CBK138510] | 93.6
CS(=O)(=O)Nc1cccc(C2=NN(S(=O)(=O)c3ccc(Cl)cc3)C(c3ccccc3F)C2)c1 (stereo not drawn) [CBK268762] | 114
COc1cccc(C(CNS(=O)(=O)c2ccc3c(c2)OCCCO3)N(C)C)c1 (stereo not drawn) [CBK298270] | 98.2
O=C(O)c1ccc(OCc2n[nH]c(=S)n2-c2ccc(Cl)cc2)cc1 [CBK014317] | 102
COc1cc2c(cc1OC)C1c3ccccc3NC(c3ccc(C)cc3)N1CC2 (stereo not drawn) [CBK286195] | 72.7
CS(=O)(=O)Nc1ccccc1C(=O)NCc1ccccn1 [CBK268494] | 106
CCCCn1c(SCC(=O)NCC2(c3ccc4c(c3)OCCO4)CCCC2)n[nH]c1=O [CBK296736] | 99.6
COc1cc(CNc2nc[nH]n2)ccc1OCc1ccc(C)cc1 [CBK269768] | 113
O=C(Nc1ccccc1)C(N1CCCCC1)N1CCCCC1 [CBK263425] | 105
O=C1NC2(CCc3ccccc31)CCN(C(=O)c1ccc(F)cc1)C2 (stereo not drawn) [CBK285308] | 102
